# In paper PMC8037814, “Polymorphic Characterization, Pharmacokinetics, and Anti-Inflammatory Activity of Ginsenoside Compound K Polymorphs” (Molecules, 2021):
# “And” between values parts separate entries of the source, which are not always exact repeats. Identical values can stand only once. Like-named read-outs stand apart in the source and are kept apart here.
# Columns and labels:
# [1] = Pharmacokinetics after intravenous administration of CK in rats (10 mg/kg); type: in vivo, Sprague-Dawley rats; conditions: male rats, i.v. 10 mg/kg; for MRT last: read-out: MRT(0-t); for half-life: read-out: t1/2z (converted)
# Experimental: All samples were analyzed with a triple quadrupole LC-MS/MS (API 4000 LC-MS/MS, AB Sciex, Framingham, MA, USA) coupled with an Agilent 1200 HPLC system (Agilent Technologies, Palo Alto, CA, USA). The MS was equipped with an electrospray system (ESI). The N2 gas temperature and ion-spray voltage were set to 550 °C and 4.5 kV, respectively. CK was measured in multiple reaction monitoring (MRM) mode using a negative electrospray ionization source at m/z 667.4 → 621.2 for CK (CID 25.6 v) and m/z 271.2 → 228.8 for internal standard (IS, (E)-5-(4-fluorostyryl)-2-isopropylbenzene-1,3-diol, Welichem Biotech Inc., Wayburne Drive Burnaby, BC, Canada) (CID 28.3 v) with a dwell time of 0.1 s.
# Rats were divided randomly into 5 groups of six animals each (sex in half) and given 7 days to acclimatize to the facility before the experiments began. The four forms of CK were suspended in 0.5% sodium carboxymethyl cellulose (CMC-Na) solution and orally administered to rats at a dose of 20 mg/kg. A CK solution in a mixed solvent of dimethyl sulfoxide (DMSO)/castor oil/physiologic saline (3:5:92, v/v) was intravenously administered to the remaining group via the tail vein at a dose of 10 mg/kg. Blood samples were collected by retro-orbital puncture at the following times: 0.167, 0.333, 0.667, 1, 2, 3, 4, 6, 9, 12, and 24 h for the oral administration, and at 0.0083, 0.05, 0.133, 0.25, 0.5, 1, 2, 4, 6, and 9 h for the intravenous administration. Plasma samples were obtained by centrifuging a heparinized blood tube at 4000 rpm for 5 min and then stored at −70 °C until analysis.
# The procedure for drug extraction from plasma samples was as follows: 0.2 mL acetonitrile, 0.2 mL plasma sample, and 10 μL IS (1 µg/mL) were added into a 1.5 mL Eppendorf-type tube. This mixture was vortexed for 1 min and then treated with 0.8 mL of methyl tert-butyl ether (MTBE) to precipitate the plasma proteins. After a mechanical vortex for 1 min and subsequent centrifugation (4000 rpm, 5 min), 0.8 mL of the supernatant was transferred and blow-dried with N2 at 40 °C in a water bath. Finally, the residue was dissolved in 120 μL of mobile phase, and then 10 μL was subjected to HPLC for analysis. […] Intra- and inter-day precision and accuracy never exceeded 15% by analyzing six replicate samples.
# The CK pharmacokinetic parameters in rats, including the area under the curve (AUC(0–t) and AUC(0–∞)), mean residence time (MRT(0–t) and MRT(0–∞)), maximum concentration (Cmax), time to maximum concentration (Tmax), half-life (t1/2), apparent distribution volume (V), and total plasma clearance (CL), were derived from plasma concentration-time curves by using non-compartmental analysis (NCA) with DAS 2.0 software (Drug And Statistics, Mathematical Pharmacology Professional Committee of China, Shanghai, China). The absolute bioavailability (Fabs) was calculated from the dose-adjusted ratio of AUCp.o. to AUCi.v.. One-way analysis of variance (ANOVA) by SPSS 11.5 (SPSS Inc., Chicago, IL, USA) was conducted to compare the primary PK parameters.
# [2] = cited from earlier work
# [3] = male, Sprague-Dawley, rat, plasma, iv, 10 mg/kg, Mean±SD, read-out: Plasma concentrations of CK
# [4] = male, Sprague-Dawley, rat, plasma, iv, 10 mg/kg, individual rats 1-3, read-out: Plasma concentrations of CK
# [5] = male, Sprague-Dawley, rat, plasma, iv, 10 mg/kg, Mean±SD
# [6] = male, Sprague-Dawley, rat, plasma, iv, 10 mg/kg, individual rats 1-3
smiles,measurement,setting,value
"CC(C)=CCCC(C)(OC1OC(CO)C(O)C(O)C1O)C1CCC2(C)C1C(O)CC1C3(C)CCC(O)C(C)(C)C3CCC12C [CK, 20-O-β-D-glucopyranosyl-20(S)-protopanaxadiol]",Plasma concentrations of CK,"[1]; 1 h, individual rats 1-3, 10 mg/kg",75.42 ng/mL and 107.64 ng/mL
same,Plasma concentrations of CK,"[1]; 2 h, individual rats 1-3, 10 mg/kg",41.16 ng/mL and 54.90 ng/mL
same,Plasma concentrations of CK,"[1]; 4 h, individual rats 1-3, 10 mg/kg",42.63 ng/mL and 32.27 ng/mL and 85.89 ng/mL
same,Plasma concentrations of CK,"[1]; 6 h, individual rats 1-3, 10 mg/kg",14.03 ng/mL and 27.30 ng/mL
same,Plasma concentrations of CK,"[1]; 9 h, individual rats 1-3, 10 mg/kg",11.73 ng/mL and 16.36 ng/mL
same,CLz/F,[1]; Mean±SD,5.40 ± 1.08 L/h/kg
same,Vz/F,[1]; Mean±SD,24.21 ± 7.69 L/kg
same,AUC(0-t),"[1]; individual rats 1-3, 10 mg/kg",2963.73 ng·h/mL and 3980.16 ng·h/mL
same,AUC(0-∞),"[1]; individual rats 1-3, 10 mg/kg",3.01298 µg·h/mL and 4.07446 µg·h/mL
same,CLz/F,"[1]; individual rats 1-3, 10 mg/kg",4.66 L/h/kg and 6.64 L/h/kg and 4.91 L/h/kg
same,MRT(0-t),"[1]; individual rats 1-3, 10 mg/kg",19.2 min and 27.2 min
same,MRT(0-∞),"[1]; individual rats 1-3, 10 mg/kg",22.8 min and 32.4 min and 47.4 min
same,Vz/F,"[1]; individual rats 1-3, 10 mg/kg",15.34 L/kg and 28.92 L/kg and 28.37 L/kg
same,t1/2z,"[1]; individual rats 1-3, 10 mg/kg",3.02 h and 4.01 h
same,concentration at 0.5 min,[1]; [3],71.7 ± 5.62 µg/mL
same,concentration at 0.5 min,[1]; [4],78.1 µg/mL
same,concentration at 0.05 h,[1]; [3],17100 ± 5230 ng/mL
same,concentration at 0.05 h,[1]; [4],21700 ng/mL
same,concentration at 8 min,"[1]; male, Sprague-Dawley, rat, plasma, iv, 10 mg/kg, 8 min, Mean±SD, read-out: Plasma concentrations of CK",2280 ± 940 ng/mL
same,concentration at 0.25 h,[1]; [3],1080 ± 359 ng/mL
same,concentration at 0.25 h,[1]; [4],1260 ng/mL
same,concentration at 0.5 h,[1]; [3],333 ± 103 ng/mL
same,concentration at 0.5 h,[1]; [4],393 ng/mL
same,concentration at 1 h,"[1]; male, Sprague-Dawley, rat, plasma, iv, 10 mg/kg, 1 h, Mean±SD, read-out: Plasma concentrations of CK",95.5 ± 17.5 ng/mL
same,concentration at 1 h,"[1]; male, Sprague-Dawley, rat, plasma, iv, 10 mg/kg, 1 h, individual rats 1-3, read-out: Plasma concentrations of CK",103 ng/mL
same,concentration at 2 h,"[1]; male, Sprague-Dawley, rat, plasma, iv, 10 mg/kg, 2 h, Mean±SD, read-out: Plasma concentrations of CK",52.1 ± 9.87 ng/mL
same,concentration at 2 h,"[1]; male, Sprague-Dawley, rat, plasma, iv, 10 mg/kg, 2 h, individual rats 1-3, read-out: Plasma concentrations of CK",60.3 ng/mL
same,concentration at 4 h,"[1]; male, Sprague-Dawley, rat, plasma, iv, 10 mg/kg, 4 h, Mean±SD, read-out: Plasma concentrations of CK",53.6 ± 28.4 ng/mL
same,concentration at 6 h,"[1]; male, Sprague-Dawley, rat, plasma, iv, 10 mg/kg, 6 h, Mean±SD, read-out: Plasma concentrations of CK",20.3 ± 6.66 ng/mL
same,concentration at 6 h,"[1]; male, Sprague-Dawley, rat, plasma, iv, 10 mg/kg, 6 h, individual rats 1-3, read-out: Plasma concentrations of CK",19.7 ng/mL
same,concentration at 9 h,"[1]; male, Sprague-Dawley, rat, plasma, iv, 10 mg/kg, 9 h, Mean±SD, read-out: Plasma concentrations of CK",12.4 ± 3.64 ng/mL
same,concentration at 9 h,"[1]; male, Sprague-Dawley, rat, plasma, iv, 10 mg/kg, 9 h, individual rats 1-3, read-out: Plasma concentrations of CK",9.16 ng/mL
same,AUC(0-inf),[1]; [5],3790 ± 685 ng·h/mL
same,AUC(0-t),"[1]; male, Sprague-Dawley, rat, plasma, iv, 10 mg/kg, Mean±SD, read-out: AUC(0-t)",3740 ± 684 ng·h/mL
same,MRT last,[1]; [5],21.6 ± 4.8 min
same,MRT inf,"[1]; male, Sprague-Dawley, rat, plasma, iv, 10 mg/kg, Mean±SD, read-out: MRT(0-∞)",34.2 ± 12.6 min
same,half-life,[1]; [5],186 ± 52.2 min
same,AUC(0-inf),[1]; [6],4290 ng·h/mL
same,AUC(0-t),"[1]; male, Sprague-Dawley, rat, plasma, iv, 10 mg/kg, individual rats 1-3, read-out: AUC(0-t)",4260 ng·h/mL
same,MRT last,[1]; [6],18 min
same,half-life,[1]; [6],137 min
same,exposure levels of CK in females versus males,[2]; healthy Chinese subjects,higher
same,dose-normalized Cmax and t1/2 in females versus males,"[2]; multiple-dose trial in humans, day 1 and day 15",significantly higher
